Reference: publication PMC5795052 (Open Biology, 2018)

Tests used:
[1] = system: ACKR3; set-up: method as in 2 sources, one per row (each row's own in cited_ref): ref [29]–[32] = [29]; PMID 16940167; doi:10.1084/jem.20052144; 29 Burns JM et al. 2006 A novel chemokine receptor for SDF-1 and I-TAC involved in cell survival, cell adhesion, and tumor development . J. Exp. Med. 203 , 2201 – 2213 . ( doi:10.1084/jem.20052144 ) 1 || [30]; PMID 27875312; doi:10.1074/jbc.M116.762252; 30 Benredjem B , Girard M , Rhainds D , St-Onge G , Heveker N 2017 Mutational analysis of atypical chemokine receptor 3 (ACKR3/CXCR7) interaction with its chemokine ligands CXCL11 and CXCL12 . J. Biol || [31]; PMID 9918548; 31 Gifford AN , Bruneus M , Gatley SJ , Lan R , Makriyannis A , Volkow ND 1999 Large receptor reserve for cannabinoid actions in the central nervous system . J. Pharmacol. Exp. Ther. 288 , 478 – 483 . || [32]; PMID 8779988; doi:10.1152/ajplung.1996.270.2.L199; 32 Ethier MF , Schaefer OP , Samant N , Yamaguchi H , Madison JM 1996 Muscarinic receptor reserve for inhibition of cAMP accumulation in bovine trachealis cells . Am. J. Physiol. 270 , L199 – L207 . 8 ||| ref [24] = [24]; PMID 21757744; doi:10.1074/jbc.M111.233742; 24 Saini V , Staren DM , Ziarek JJ , Nashaat ZN , Campbell EM , Volkman BF , Marchese A , Majetschak M 2011 The CXC chemokine receptor 4 ligands ubiquitin and stromal cell-derived factor-1alpha functi; conditions: ref [24]; cited from earlier work
[2] = system: rat mesenteric arteries (PE-induced vasoconstriction); experiment: Pressure myography, PE-preconstricted isolated rat mesenteric arteries; conditions: 10 µM ligand; for effect on PE-induced vasoconstriction (outer diameter % change): arteries at 80 mmHg preconstricted with 2 µM PE, figure 1a, vehicle n = 4, CXCL11 n = 6, ubiquitin n = 7, *p < 0.05 versus vehicle
Experimental: (§3) (a,b) Pressure myography with rat mesenteric arteries. […] (d) Pressure myography experiments as in (a); PE-induced vasoconstriction. All ACKR3 ligands were tested at a concentration of 10 µM. […] All ACKR3 ligands were tested at a concentration of 10 µM.
(§4) Pressure myography was performed as described in detail previously with slight modifications [7, 63]. Male Sprague–Dawley rats (Harlan) were anaesthetized with 3.5% isoflurane. The mesentery was immediately removed and placed in 130 mM NaCl, 4.7 mM KCl, 1.18 mM KH2PO4, 1.17 mM MgSO4, 14.9 mM NaHCO3, 5.5 mM D-glucose, 0.026 mM EDTA and 1.16 mM CaCl2 aerated with 95% O2, 5% CO2 at 37°C. The animal was then euthanized by cardiectomy and bilateral decompression of the lungs. Third- or fourth-order mesenteric arteries were dissected free from the mesentery, mounted onto two glass cannulae with United States Pharmacopeia (USP) scale 11-0 sutures and pressurized to 80 mmHg in a DMT 110P pressure myograph system (DMT-USA). The intraluminal solution and the vessel bath solution were the same as described before. The vessel bath solution was continuously aerated with 95% O2, 5% CO2 throughout the experiment.

[3] = system: rat mesenteric arteries (aVP-induced vasoconstriction); experiment: Pressure myography, aVP-preconstricted isolated rat mesenteric arteries; conditions: 10 µM ligand, arteries at 80 mmHg preconstricted with 0.5 nM aVP; figure 1b; *p < 0.05 versus vehicle
Experimental: as §3, §4

[4] = system: ACKR3; experiment: β-arrestin 2 recruitment assay (PRESTO-Tango) for ACKR3 co-expressed with pcDNA3 or HA-AVPR1A; format: cell-based, human; conditions: ACKR3-Tango/HA-AVPR1A versus ACKR3-Tango/pcDNA3; n = 3; figure 9e,f
Source text: (§1) The human AVPR1A cDNA sequence was from the AVPR1A-TANGO plasmid (Addgene, plasmid #66225). The hRLuc cDNA was PCR-amplified from pIRES-Myc-hCXCR4-Rluc, which was generously provided by Dr Michel Bouvier, with primers carrying the AgeI and XbaI sites at either end, respectively, and ligated with the C-terminus of AVPR1A at the corresponding sites. Human CXCR4 and ACKR3 cDNAs were from the CXCR4-TANGO (Addgene, plasmid #66262) and the ACKR3-TANGO (Addgene, plasmid #66265) plasmids. The EYFP cDNA was PCR-amplified from pEYFP with primers harbouring AgeI and XbaI sites and ligated with the C-terminus of ACKR3. All plasmids were confirmed by sequencing.
hVSMCs (primary aortic smooth muscle cells, ATCC PCS-100-012), A7r5 cells (ATCC-CRL-1444) and HEK293T cells (ATCC-CRL-11268) were purchased from American Type Culture Collection. hVSMCs were cultured in vascular basal media (ATCC PCS-100-030) supplemented with the vascular smooth muscle growth kit (ATCC PCS-100-042), containing 100 U ml^−1 penicillin and 100 µg ml^−1 streptomycin. hVSMCs were used between passages 2–5. HEK293T and A7r5 cells were cultured in high-glucose Dulbecco's Modified Eagle's Medium containing 10 mg ml^−1 sodium pyruvate, 2 mM L-glutamine, 10% (vol/vol) FBS, 1× non-essential amino acids, 100 U ml^−1 penicillin and 100 µg ml^−1 streptomycin. The HTLA cell line, a HEK293 cell line stably expressing a tTA-dependent luciferase reporter and a β-arrestin 2–TEV fusion gene were generously provided by the laboratory of Dr Bryan Roth and maintained in high-glucose Dulbecco's Modified Eagle's Medium supplemented with 10% (vol/vol) FBS, 1× non-essential amino acids, 100 U ml^−1 penicillin, 100 µg ml^−1 streptomycin, 50 µg ml^−1 hygromycin B and 2 µg ml^−1 puromycin. All cells were cultured in a humidified environment at 37°C, 5% CO2.
The PRESTO-Tango (parallel receptorome expression and screening via transcriptional output, with transcriptional activation following arrestin translocation) assay was performed as recently described. The Tango plasmids were a gift from Dr Bryan Roth (all from Addgene). HTLA cells (2.5 × 10^5 per well) were seeded in a six-well plate and transfected with 1.5 µg of the Tango plasmids using Lipofectamine 3000 (ThermoScientific). The following day, transfected HTLA cells (1 × 10^5 cells per well) were plated onto poly-L-lysine precoated 96-well microplates and allowed to attach to the plate surface for at least 4 h prior to treatment. Proteins used for treatment were prepared in twice the final concentration in culture media, added at a 1 : 1 vol/vol ratio and incubated overnight at 37°C, 5% CO2 in a humidified environment. The following morning, media were removed from cell culture plates and replaced with a 100 µl 1 : 5 mixture of Bright-Glo (Promega) and 1× HBSS, 20 mM HEPES solution. Plates were then incubated at room temperature before measuring luminescence on a Biotek Synergy II plate reader.

[5] = system: AVPR1A; experiment: Receptor internalization by flow cytometry, AVPR1A; format: cell-based, human; conditions: hVSMC, 1 µM agonist, up to 60 min; n = 3; figure 10b
Experimental: (§2) The cells were washed once with ice cold DPBS, blocked and stained with rabbit anti-AVPR1A (Bioss BS-11598R) and mouse anti-ACKR3 (R&D MAB42273) antibodies at 1 : 200 dilution for 1 h on ice. Cells were then washed twice with FACS wash buffer (1× PBS, 2% FBS and 0.01% NaN3), and secondary antibodies were added at a 1 : 500 dilution and incubated for 30 min on ice (donkey anti-rabbit Alexa Fluor 647, Invitrogen A-31573 and donkey anti-mouse Alexa Fluor 488, Invitrogen A-21202). Cells were washed twice with FACS wash buffer and then fixed with 4% paraformaldehyde at room temperature for 15 min. After two additional washes, the cells were counted on a BD FACS Canto II (BD Biosciences) flow cytometer. The fluorescence intensities of at least 3 × 10^4 cells were recorded and analysed using the FlowJo software (Tree Star).

[6] = system: ACKR3; experiment: Receptor internalization by flow cytometry, ACKR3; format: cell-based, human; conditions: hVSMC, 1 µM agonist, up to 60 min; n = 3; figure 10c
Experimental: as §2

[7] = target: AVPR1A (Homo sapiens, UniProt P37288); experiment: β-arrestin 2 recruitment assay (PRESTO-Tango) for AVPR1A co-expressed with HA-ACKR3; format: cell-based; set-up: FLAG (N); Tango module (C-terminal fusion of the PRESTO-Tango plasmid); ACKR3 cDNA from plasmid #66265; host or cells: HTLA cells (HEK293 line with tTA-dependent luciferase reporter and β-arrestin 2–TEV fusion); conditions: n = 3, figure 9c
Source text: as §1
hVSMCs (primary aortic smooth muscle cells, ATCC PCS-100-012), A7r5 cells (ATCC-CRL-1444) and HEK293T cells (ATCC-CRL-11268) were purchased from American Type Culture Collection. hVSMCs were cultured in vascular basal media (ATCC PCS-100-030) supplemented with the vascular smooth muscle growth kit (ATCC PCS-100-042), containing 100 U ml^−1 penicillin and 100 µg ml^−1 streptomycin. hVSMCs were used between passages 2–5. HEK293T and A7r5 cells were cultured in high-glucose Dulbecco's Modified Eagle's Medium containing 10 mg ml^−1 sodium pyruvate, 2 mM L-glutamine, 10% (vol/vol) FBS, 1× non-essential amino acids, 100 U ml^−1 penicillin and 100 µg ml^−1 streptomycin. […]

Sequence of AVPR1A (Homo sapiens, UniProt P37288) (P37288 whole entry, the tested form may be a part): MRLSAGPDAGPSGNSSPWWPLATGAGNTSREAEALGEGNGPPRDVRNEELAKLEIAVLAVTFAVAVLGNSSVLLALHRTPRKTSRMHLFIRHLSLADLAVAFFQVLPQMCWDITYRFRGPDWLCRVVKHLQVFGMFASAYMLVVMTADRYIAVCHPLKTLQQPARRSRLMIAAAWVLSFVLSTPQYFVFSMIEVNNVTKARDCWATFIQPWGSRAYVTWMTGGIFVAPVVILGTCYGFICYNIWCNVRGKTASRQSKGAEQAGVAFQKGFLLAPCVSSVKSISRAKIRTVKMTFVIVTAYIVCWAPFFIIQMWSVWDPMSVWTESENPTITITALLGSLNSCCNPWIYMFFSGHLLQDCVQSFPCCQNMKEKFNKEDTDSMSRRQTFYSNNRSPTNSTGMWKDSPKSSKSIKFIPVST
Sequence of AVPR1A (Homo sapiens, UniProt P37288) (P25106 whole entry partner, the tested form may be a part): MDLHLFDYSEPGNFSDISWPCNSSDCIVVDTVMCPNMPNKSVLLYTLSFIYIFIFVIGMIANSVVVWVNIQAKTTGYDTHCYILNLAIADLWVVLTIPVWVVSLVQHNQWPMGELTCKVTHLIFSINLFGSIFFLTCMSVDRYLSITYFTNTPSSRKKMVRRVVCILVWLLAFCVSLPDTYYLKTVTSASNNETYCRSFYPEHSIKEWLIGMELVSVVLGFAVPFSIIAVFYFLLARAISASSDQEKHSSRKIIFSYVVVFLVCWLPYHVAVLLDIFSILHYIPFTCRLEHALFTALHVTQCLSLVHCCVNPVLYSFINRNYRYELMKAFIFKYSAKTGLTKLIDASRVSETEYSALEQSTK

Substance	binding to ACKR3 [1]	effect on PE-induced vasoconstriction (outer diameter % change) [2]	effect on aVP-induced vasoconstriction (outer diameter % change) [3]	effect of AVPR1A co-expression on efficacy to recruit β-arrestin 2 to ACKR3-Tango [4]	effect of AVPR1A co-expression on potency to recruit β-arrestin 2 to ACKR3-Tango [4]	AVPR1A cell surface expression after agonist [5]	ACKR3 cell surface expression after agonist [6]	effect on PE-induced vasoconstriction, comparison of ACKR3 ligands ([2]; 2 µM PE, figure 1d, vehicle n = 5, CXCL11 n = 7, CXCL11 (3–73) n = 9, CXCL12 n = 14, p < 0.05 vehicle versus CXCL11 and CXCL12, p > 0.05 CXCL11 versus CXCL12)	β-arrestin 2 recruitment to AVPR1A-Tango by chemokines, presence of ACKR3 [7]
ubiquitin	does not bind to ACKR3	enhanced PE-induced vasoconstriction	did not affect aVP-induced vasoconstriction						
CXCL11: ACKR3 and CXCR3 agonist, from Protein Foundry		antagonized PE-induced vasoconstriction		significantly reduced the efficacy	without affecting the potency	time-dependently reduced expression levels of both AVPR1A and ACKR3	time-dependently reduced expression levels of both AVPR1A and ACKR3	attenuated PE- and aVP-induced vasoconstriction to a similar degree	did not induce β-arrestin 2 recruitment to AVPR1A-Tango
